The record followed here is patent US12351574B2, “Selective ligands for modulation of GIRK channels” (Northeastern University, priority 2018, dated 2025).

The EC50 is the concentration needed to bring the measured effect to its halfway point. Read a low EC50 as higher potency in that assay.

Data set [1] concerns the target T1, GIRK1/2 (UniProt P48542+P48549).
T1 sequence (P48549 1-501): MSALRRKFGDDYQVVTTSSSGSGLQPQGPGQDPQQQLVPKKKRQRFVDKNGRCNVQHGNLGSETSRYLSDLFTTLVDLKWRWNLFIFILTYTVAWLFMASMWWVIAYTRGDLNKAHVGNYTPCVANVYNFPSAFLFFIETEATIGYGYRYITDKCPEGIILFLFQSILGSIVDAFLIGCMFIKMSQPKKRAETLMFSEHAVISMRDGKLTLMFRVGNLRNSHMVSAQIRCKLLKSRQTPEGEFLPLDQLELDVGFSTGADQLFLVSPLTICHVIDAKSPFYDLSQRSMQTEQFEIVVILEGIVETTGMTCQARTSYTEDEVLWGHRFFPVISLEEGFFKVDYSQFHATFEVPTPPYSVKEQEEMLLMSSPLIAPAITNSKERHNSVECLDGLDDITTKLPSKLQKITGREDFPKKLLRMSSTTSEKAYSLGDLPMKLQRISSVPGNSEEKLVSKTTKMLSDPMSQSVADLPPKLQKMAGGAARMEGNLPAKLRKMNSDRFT
T1 sequence (P48542 1-425): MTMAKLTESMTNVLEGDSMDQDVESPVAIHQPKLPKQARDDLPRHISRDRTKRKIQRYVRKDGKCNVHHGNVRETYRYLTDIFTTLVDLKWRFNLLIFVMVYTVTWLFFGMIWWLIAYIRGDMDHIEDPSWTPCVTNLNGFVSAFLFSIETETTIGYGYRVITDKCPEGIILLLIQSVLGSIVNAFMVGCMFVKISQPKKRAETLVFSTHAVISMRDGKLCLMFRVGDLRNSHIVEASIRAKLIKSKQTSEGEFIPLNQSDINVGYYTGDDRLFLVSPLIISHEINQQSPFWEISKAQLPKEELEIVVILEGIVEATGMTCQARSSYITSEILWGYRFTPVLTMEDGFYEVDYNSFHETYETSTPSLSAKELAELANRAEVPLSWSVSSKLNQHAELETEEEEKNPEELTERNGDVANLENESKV
The data set is described as follows: thallium flux assay, cells expressing GIRK1/2. Also on record: expressed in transfected cells. The data set is classed as cell-based. An excerpt: Previous studies have utilized the thallium flux Assay to test the effects of ML297 and related compounds in cells coexpressing GIRK1/2 and GIRK1/4. In order to fully investigate the selective activation of GAT compounds, the inventors also utilized this assay. […] To determine the differences between the thallium flux and TEVC assays, the inventors computationally tested whether the binding of selective compounds could affect the selectivity of the pore area. The Cα RMSF of the region between the M1 and M2 helices of the channel were calculated during the MD simulation with or without ML297 and the selective GAT compounds in the GIRK2/2^FD and GIRK4/4^FD systems (FIGS. 60A-60B). […] To further test this idea, the inventors compared the 10 μM GAT1508-induced thallium and potassium currents in oocytes expressing GIRK1/2 and GIRK1/4 by TEVC recording (FIG. 61B). […] In an effort to enhance the current, the TEVC recording was performed at a holding potential of −100 mV.

Data set [2] deals with human ERG (hERG) channels (Homo sapiens, UniProt Q12809). The conditions noted are these: 5 µM. How it is done: In FIG. 52A, human ERG (hERG) channels were expressed in Xenopus oocytes and studied by two-electrode voltage clamp (TEVC). In FIG. 52A, hERG tail-current magnitude was assessed at −50 mV, following a 4 second test step to 20 mV from a holding voltage of −100 mV. The test pulse was repeated every 10-seconds. […] Two-electrode voltage-clamp and data analysis: Whole-oocyte currents were measured by two-electrode voltage clamp (TEVC) with GeneClamp 500 (Molecular Devices), or TEC-03X (NPI) amplifiers. […] The oocytes were bathed in ND96 recording solution comprising, in mM: KCl 2, NaCl 96, MgCl2 1 and HEPES 5, buffered to pH 7.4 with KOH. Where indicated, GIRK channel currents were assessed in a high K^+ recording solution comprising, in mM: KCl 96, NaCl 2, MgCl2 1 and HEPES 5, buffered to pH 7.4 with KOH. Currents were digitized using a USB interface (National Instruments) and recorded using WinWCP software (University of Strathclyde). To study GIRK channels, oocytes were held at 0 mV, and currents were assessed by 100 ms ramps from −80 to +80 mV that were repeated every second. The effect of the reagents was determined at −80 mV, then the channels were blocked by 5 mM BaCl2. Block was expressed as the percent-current block normalized to the maximum current. Between 8-12 oocytes from different Xenopus frogs were studied per experiment.
Sequence of human ERG (hERG) channels (Q12809 whole entry): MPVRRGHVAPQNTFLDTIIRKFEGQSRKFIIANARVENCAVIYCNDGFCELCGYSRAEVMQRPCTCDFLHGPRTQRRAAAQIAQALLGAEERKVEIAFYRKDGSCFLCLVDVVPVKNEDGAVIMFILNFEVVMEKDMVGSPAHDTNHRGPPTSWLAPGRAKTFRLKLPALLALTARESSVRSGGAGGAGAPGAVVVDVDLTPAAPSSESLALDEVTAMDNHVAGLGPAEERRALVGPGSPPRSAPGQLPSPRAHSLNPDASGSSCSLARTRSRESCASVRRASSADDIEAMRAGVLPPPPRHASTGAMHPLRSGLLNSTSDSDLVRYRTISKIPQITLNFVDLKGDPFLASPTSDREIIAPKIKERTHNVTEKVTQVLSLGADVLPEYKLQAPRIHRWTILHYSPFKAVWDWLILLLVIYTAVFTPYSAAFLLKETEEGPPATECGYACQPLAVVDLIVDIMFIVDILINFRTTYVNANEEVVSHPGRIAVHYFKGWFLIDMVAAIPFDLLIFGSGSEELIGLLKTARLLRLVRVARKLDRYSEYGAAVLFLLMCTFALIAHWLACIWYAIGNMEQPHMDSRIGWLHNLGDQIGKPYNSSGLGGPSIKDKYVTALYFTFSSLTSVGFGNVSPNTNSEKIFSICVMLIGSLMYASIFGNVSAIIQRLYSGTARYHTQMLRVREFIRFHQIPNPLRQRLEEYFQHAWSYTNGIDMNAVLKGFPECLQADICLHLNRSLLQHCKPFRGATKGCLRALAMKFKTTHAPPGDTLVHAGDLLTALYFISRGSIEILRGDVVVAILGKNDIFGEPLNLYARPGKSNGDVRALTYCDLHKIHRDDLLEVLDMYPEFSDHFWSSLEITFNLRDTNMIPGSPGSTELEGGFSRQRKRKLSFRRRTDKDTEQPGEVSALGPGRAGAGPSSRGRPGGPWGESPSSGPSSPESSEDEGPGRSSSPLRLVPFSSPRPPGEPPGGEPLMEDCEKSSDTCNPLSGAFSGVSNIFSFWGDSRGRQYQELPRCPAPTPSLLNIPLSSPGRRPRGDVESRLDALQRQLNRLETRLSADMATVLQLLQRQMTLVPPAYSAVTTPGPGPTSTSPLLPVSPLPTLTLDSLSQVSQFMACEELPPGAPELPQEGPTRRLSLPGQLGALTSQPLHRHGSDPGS

For the molecule `Cc1cc(NC(=O)Nc2ccc(F)c(F)c2)n(-c2ccccc2)n1` [ML297, reference compound], the EC50 in data set [1] is approximately 689 nM. In data set [2], the “inhibition of the hERG tail current” value was approximately 40%.
